Values joined by “and” are separate entries in the source; they are usually repeats but may differ in a detail not shown here. Equal entries are not always repeated.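 How tested: cells in 96-well plates exposed to compound for 48 hours at five concentrations. GI50 = concentration required for 50% inhibition of growth. TGI: concentration producing complete growth inhibition.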
The compounds below were run on HT29 colon (assay: NCI anticancer screen, dose series, 48 h).

Compound	TGI	GI50
O=C(O)c1ccc(CNCc2ccccc2)cc1	> 100 µM	–
CCOC(=O)Nc1c(C)nc2ccccn12	> 100 µM	> 100 µM
CC(C)=CCC1=C(O)c2ccccc2C(=O)C1=O	> 100 µM	–
O=[N+]([O-])c1ccccc1N=Nc1c(O)[nH]c2c(Cl)cc(Cl)cc12	> 100 µM	–
NC(=S)N/N=C/c1ncccc1O	> 1000 µM	2.72 µM
C=C(CN(C)Cc1ccccc1)c1ccc(NC(=O)c2ccc(C(=C)CN(C)Cc3ccccc3)cc2)cc1	> 100 µM	> 100 µM
O=C(CC(=O)Nc1ccccc1)NNC(Sc1ccccc1)c1cc(N=Nc2ccc(Br)cc2)ccc1O (stereo not drawn)	> 10 µM	–
Cc1cc(C(=O)CSC(=S)SC(C)(C)C)ccc1Cl	69 µM	–
C=CC12CCN(CC1)C(C(O)c1ccnc3ccc(OC)cc13)C2 (stereo not drawn)	> 100 µM	61.9 µM
O=C(Nc1nc(-c2c[nH]c3ccccc23)cs1)c1n[nH]c(=O)c2ccccc12	> 100 µM	1.19 µM
CN(C)CCN1CCC(Cc2ccccc2)CC1	> 80 µM	> 80 µM
COc1cc2c3c(n(C)c(=O)c2cc1OC)-c1cc2c(cc1C3=O)OCO2	> 100 µM	–
COc1ccc(/C=C\c2cc(OC)c(OC)c(OC)c2)cc1OCC(=O)O	> 100 µM	–
CCSc1nc(N=Cc2ccccc2O)c2cn[nH]c2n1	> 100 µM	30.7 µM
CSC[C@H](NC(=O)COc1cccc2cnccc12)C(=O)NC(Cc1ccccc1)C(O)C(=O)N1CSC[C@H]1C(=O)NC(C)(C)C (stereo partly drawn)	> 100 µM	–
O=C(Nc1ncc(Cc2cccc(C(F)(F)F)c2)s1)c1ccc2c(c1)OCCO2	> 35.2 µM	0.498 µM
C[C@H](CCOc1cccc(CC(=O)O)c1)N(Cc1cccc(C(F)(F)F)c1Cl)CC(c1ccccc1)c1ccccc1	22.9 µM	4.43 µM
CNc1cc2oc(=O)cc(C)c2cc1C	> 100 µM	–

Each compound was assayed on HOP-62 NSCLC (assay: NCI anticancer screen, dose series, 48 h).

Compound	GI50	TGI
Nc1c(C(=O)Nc2ccccn2)sc2nc3c(cc12)C(=O)CCC3	1.75 µM	> 100 µM
Cc1nc2c(Br)cc(Br)cc2c(=O)n1-c1nnc(-c2cccc(Cl)c2Cl)c(N)n1	7.08 µM	28.2 µM
N#CC(I)CS(=O)(=O)c1ccccc1 (stereo not drawn)	19.3 µM	38.4 µM
COc1ccc2c(=O)oc3c(OC)cc(CCN(C)C)c4c(=O)oc1c2c34	–	28.7 µM
COc1ccc(Cl)cc1NC(=O)c1ccc(NC2=C(Cl)C(=O)N(Cc3ccccc3)C2=O)cc1	> 100 µM	> 100 µM
Cc1cccc(NC2=C(Cl)C(=O)c3nc(C)ccc3C2=O)c1	0.529 µM	2.88 µM
COc1cc2c(cc1OCCCN1CCN(CCCOc3cc4c(cc3OC)C(=O)N3CC(F)(F)C[C@H]3C=N4)CC1)N=C[C@@H]1CC(F)(F)CN1C2=O	3.17 µM	6.07 µM
CCCCCCCCSC1=C(Cl)C(=O)C(OC)=C(OC)C1=O	–	51.7 µM
COC(=O)C1=CN(CC2=CC(=O)C(C)=CC2=O)C=C(C(=O)OC)C1c1ccccc1OC	23.5 µM	> 51 µM
COc1cccc2c1O/C(=C\c1ccc([N+](=O)[O-])s1)C2=O	–	> 100 µM
COC(=O)/C=C/c1cc(OC(C)=O)c2c(c1)C(C(=O)OC)C(c1ccc(OC(C)=O)c(OC(C)=O)c1)O2 (stereo not drawn)	0.438 µM	> 100 µM
O=C(O)c1ccc(CNCc2ccccc2)cc1	–	> 100 µM
CCOC(=O)Nc1c(C)nc2ccccn12	> 100 µM	> 100 µM
CC(C)=CCC1=C(O)c2ccccc2C(=O)C1=O	–	> 100 µM
O=[N+]([O-])c1ccccc1N=Nc1c(O)[nH]c2c(Cl)cc(Cl)cc12	–	> 23.1 µM
NC(=S)N/N=C/c1ncccc1O	2.6 µM	11.1 µM and 16.7 µM
C=C(CN(C)Cc1ccccc1)c1ccc(NC(=O)c2ccc(C(=C)CN(C)Cc3ccccc3)cc2)cc1	18.8 µM	36.9 µM
O=C(CC(=O)Nc1ccccc1)NNC(Sc1ccccc1)c1cc(N=Nc2ccc(Br)cc2)ccc1O (stereo not drawn)	–	> 10 µM
Cc1cc(C(=O)CSC(=S)SC(C)(C)C)ccc1Cl	–	37.4 µM
C=CC12CCN(CC1)C(C(O)c1ccnc3ccc(OC)cc13)C2 (stereo not drawn)	> 100 µM	> 100 µM
O=C(Nc1nc(-c2c[nH]c3ccccc23)cs1)c1n[nH]c(=O)c2ccccc12	3.72 µM	26.6 µM
CN(C)CCN1CCC(Cc2ccccc2)CC1	> 80 µM	> 80 µM
COc1cc2c3c(n(C)c(=O)c2cc1OC)-c1cc2c(cc1C3=O)OCO2	–	> 55 µM
COc1ccc(/C=C\c2cc(OC)c(OC)c(OC)c2)cc1OCC(=O)O	–	> 100 µM
CCSc1nc(N=Cc2ccccc2O)c2cn[nH]c2n1	54.5 µM	> 100 µM
CSC[C@H](NC(=O)COc1cccc2cnccc12)C(=O)NC(Cc1ccccc1)C(O)C(=O)N1CSC[C@H]1C(=O)NC(C)(C)C (stereo partly drawn)	–	> 100 µM
O=C(Nc1ncc(Cc2cccc(C(F)(F)F)c2)s1)c1ccc2c(c1)OCCO2	0.615 µM	> 40.9 µM
C[C@H](CCOc1cccc(CC(=O)O)c1)N(Cc1cccc(C(F)(F)F)c1Cl)CC(c1ccccc1)c1ccccc1	6.26 µM	26.4 µM
CNc1cc2oc(=O)cc(C)c2cc1C	–	> 100 µM

The compounds below were run on KM12 colon (assay: NCI anticancer screen, dose series, 48 h).

Compound	GI50	TGI
Nc1c(C(=O)Nc2ccccn2)sc2nc3c(cc12)C(=O)CCC3	0.762 µM	> 100 µM
Cc1nc2c(Br)cc(Br)cc2c(=O)n1-c1nnc(-c2cccc(Cl)c2Cl)c(N)n1	11.4 µM	40.3 µM
N#CC(I)CS(=O)(=O)c1ccccc1 (stereo not drawn)	18.9 µM	34.4 µM
COc1ccc2c(=O)oc3c(OC)cc(CCN(C)C)c4c(=O)oc1c2c34	18 µM and 6.41 µM	36 µM and 13.4 µM
COc1ccc(Cl)cc1NC(=O)c1ccc(NC2=C(Cl)C(=O)N(Cc3ccccc3)C2=O)cc1	64.4 µM	> 100 µM
Cc1cccc(NC2=C(Cl)C(=O)c3nc(C)ccc3C2=O)c1	2.67 µM	10.8 µM
COc1cc2c(cc1OCCCN1CCN(CCCOc3cc4c(cc3OC)C(=O)N3CC(F)(F)C[C@H]3C=N4)CC1)N=C[C@@H]1CC(F)(F)CN1C2=O	4.1 µM	17.5 µM
CCCCCCCCSC1=C(Cl)C(=O)C(OC)=C(OC)C1=O	–	37.7 µM
COC(=O)C1=CN(CC2=CC(=O)C(C)=CC2=O)C=C(C(=O)OC)C1c1ccccc1OC	23.6 µM	> 72.3 µM
COC(=O)/C=C/c1cc(OC(C)=O)c2c(c1)C(C(=O)OC)C(c1ccc(OC(C)=O)c(OC(C)=O)c1)O2 (stereo not drawn)	0.334 µM	32.1 µM
O=C(O)c1ccc(CNCc2ccccc2)cc1	–	> 100 µM
CCOC(=O)Nc1c(C)nc2ccccn12	> 100 µM	> 100 µM
CC(C)=CCC1=C(O)c2ccccc2C(=O)C1=O	–	> 100 µM
O=[N+]([O-])c1ccccc1N=Nc1c(O)[nH]c2c(Cl)cc(Cl)cc12	–	> 100 µM
NC(=S)N/N=C/c1ncccc1O	4.67 µM	> 1000 µM
C=C(CN(C)Cc1ccccc1)c1ccc(NC(=O)c2ccc(C(=C)CN(C)Cc3ccccc3)cc2)cc1	> 100 µM	> 100 µM
O=C(CC(=O)Nc1ccccc1)NNC(Sc1ccccc1)c1cc(N=Nc2ccc(Br)cc2)ccc1O (stereo not drawn)	–	> 10 µM
Cc1cc(C(=O)CSC(=S)SC(C)(C)C)ccc1Cl	–	53.3 µM
C=CC12CCN(CC1)C(C(O)c1ccnc3ccc(OC)cc13)C2 (stereo not drawn)	> 100 µM	> 100 µM
O=C(Nc1nc(-c2c[nH]c3ccccc23)cs1)c1n[nH]c(=O)c2ccccc12	1.76 µM	> 100 µM
CN(C)CCN1CCC(Cc2ccccc2)CC1	> 80 µM	> 80 µM
COc1cc2c3c(n(C)c(=O)c2cc1OC)-c1cc2c(cc1C3=O)OCO2	–	> 100 µM
COc1ccc(/C=C\c2cc(OC)c(OC)c(OC)c2)cc1OCC(=O)O	–	> 74 µM
CCSc1nc(N=Cc2ccccc2O)c2cn[nH]c2n1	13.2 µM	37 µM
CSC[C@H](NC(=O)COc1cccc2cnccc12)C(=O)NC(Cc1ccccc1)C(O)C(=O)N1CSC[C@H]1C(=O)NC(C)(C)C (stereo partly drawn)	–	> 100 µM
O=C(Nc1ncc(Cc2cccc(C(F)(F)F)c2)s1)c1ccc2c(c1)OCCO2	0.196 µM	> 100 µM
C[C@H](CCOc1cccc(CC(=O)O)c1)N(Cc1cccc(C(F)(F)F)c1Cl)CC(c1ccccc1)c1ccccc1	4.1 µM	15.1 µM

Reference: PubChem BioAssay (NCI)
